Results: a flash point compilation (Sun et al. 2020)

SMILES | flash point [°C]
Nc1ccc(Cc2ccc(N)cc2)cc1 [4-[(4-aminophenyl)methyl]aniline] | 221.00
O=[N+]([O-])c1cc(Cl)cc(Cl)c1 [1,3-dichloro-5-nitrobenzene] | 140.00
CCCCOCCOCCOCCO [2-[2-(2-butoxyethoxy)ethoxy]ethanol] | 143.00
CC(=O)OC(C)=O [acetyl acetate] | 49.00
O=P(OCCCl)(OCCCl)OCCCl [tris(2-chloroethyl) phosphate] | 232.00
C [methane] | -188.00
ClCCOCCCl [1-chloro-2-(2-chloroethoxy)ethane] | 55.00
O=C(Cl)CCl [2-chloroacetyl chloride] | 100.00
COc1ccc2c3c1OC1C(O)C=CC4C(C2)N(C)CCC341 (stereo unspecified) | 75.00
ClC=Cc1ccccc1 [2-chloroethenylbenzene] | 58.00
ClC(Cl)(Cl)c1ccccc1 [trichloromethylbenzene] | 127.00
CC(CCl)OC(C)CCl (stereo unspecified) [1-chloro-2-(1-chloropropan-2-yloxy)propane] | 85.00
O=[N+]([O-])c1cccc(Cl)c1 [1-chloro-3-nitrobenzene] | 127.00
NC(=Nc1ccccc1)Nc1ccccc1 [1,2-diphenylguanidine] | 198.00
Nc1cccc2ccccc12 [naphthalen-1-amine] | 157.00
OCCCl [2-chloroethanol] | 60.00
CCCCCCCCCCCCCl [1-chlorododecane] | 113.00
Nc1ccc([N+](=O)[O-])cc1[N+](=O)[O-] [2,4-dinitroaniline] | 224.00
S=C=S [methanedithione] | -30.00
Oc1ccc(Cl)c(Cl)c1Cl [2,3,4-trichlorophenol] | 62.00
FC(F)(F)c1ccc(Cl)cc1 [1-chloro-4-(trifluoromethyl)benzene] | 47.00

SMILES | flash point [°C]
CC(C)(C)OOC(C)(C)C [2-tert-butylperoxy-2-methylpropane] | 18.00
Clc1cccc(C(Cl)(Cl)Cl)n1 [2-chloro-6-(trichloromethyl)pyridine] | 100.00
Brc1ccc(-c2ccccc2)cc1 [1-bromo-4-phenylbenzene] | 143.00
CCOC(=O)CCl [ethyl 2-chloroacetate] | 38.00
CCCCOCCOCCOCc1cc2c(cc1CCC)OCO2 [5-[2-(2-butoxyethoxy)ethoxymethyl]-6-propyl-1,3-benzodioxole] | 171.00
O=[N+]([O-])c1ccccc1C(F)(F)F [1-nitro-2-(trifluoromethyl)benzene] | 96.00
Cl[Si](Cl)(Cl)C1CCCCC1 [trichloro(cyclohexyl)silane] | 91.00
OCCCBr [3-bromopropan-1-ol] | 94.00
CCCCOCCOCC(C)O (stereo unspecified) [1-(2-butoxyethoxy)propan-2-ol] | 121.00
CCCCCCCCCc1ccc(O)cc1 [4-nonylphenol] | 113.00
O=c1ccc(=O)[nH][nH]1 [1,2-dihydropyridazine-3,6-dione] | 300.00
CCCCN(CCC)N=O [N-butyl-N-propylnitrous amide] | 94.00
C=CC(=O)OCC(C)C [2-methylpropyl prop-2-enoate] | 30.00
CC(C)(C)c1cc(C(C)(C)C)c(O)c(C(C)(C)C)c1 [2,4,6-tritert-butylphenol] | 130.00
COc1cc(Cl)c(OC)cc1Cl [1,4-dichloro-2,5-dimethoxybenzene] | 161.00
CCSC(C)CC1CC(=O)C(/C(CC)=N/OC/C=C/Cl)=C(O)C1 (stereo unspecified) | 72.00
CC1CC(=O)O1 (stereo unspecified) [4-methyloxetan-2-one] | 60.00
Cl.O=C(O)CCP(CCC(=O)O)CCC(=O)O | 202.00
CCCCOP(=O)(O)OCCCC [dibutyl hydrogen phosphate] | 188.00
N#CCCC#N [butanedinitrile] | 132.00

More lines, now with the values ahead:

flash point [°C] | SMILES
126.00 | CC(O)CNCC(C)O (stereo unspecified) [1-(2-hydroxypropylamino)propan-2-ol]
53.00 | CCCOCCCO [3-propoxypropan-1-ol]
102.00 | CCCCCCCCCCCCCCCCS [hexadecane-1-thiol]
9.00 | C[Si](C)(C)N[Si](C)(C)C [[dimethyl-(trimethylsilylamino)silyl]methane]
86.00 | CCC(OCCCOC)OC(C)=O (stereo unspecified) [1-(3-methoxypropoxy)propyl acetate]
73.00 | CCCCCC(=O)OC [methyl hexanoate]
104.00 | CCc1ccc(O)cc1 [4-ethylphenol]
62.00 | CC1CCCC(O)C1 (stereo unspecified) [3-methylcyclohexan-1-ol]
-53.00 | C[CH2][Al]([CH2]C)[CH2]C [triethylalumane]
31.00 | CC(C)CCC(C)(C)C [2,2,5-trimethylhexane]
96.00 | OCCc1ccccc1 [2-phenylethanol]
150.00 | CCC(C(c1ccc(Cl)cc1)c1ccc(Cl)cc1)[N+](=O)[O-] (stereo unspecified) [1-chloro-4-[1-(4-chlorophenyl)-2-nitrobutyl]benzene]
32.00 | ClC1CCCCC1 [chlorocyclohexane]
-9.00 | CC(C)CN [2-methylpropan-1-amine]
101.00 | C=C(C)C(=O)OCCOC(=O)C(=C)C [2-(2-methylprop-2-enoyloxy)ethyl 2-methylprop-2-enoate]
35.00 | C=CC[Si](Cl)(Cl)Cl [trichloro(prop-2-enyl)silane]
227.00 | O=C(O)c1ccc2c(c1)C(=O)OC2=O [1,3-dioxo-2-benzofuran-5-carboxylic acid]
-26.00 | C=C(C)CCC [2-methylpent-1-ene]
96.00 | CC(=O)OCCOC(C)=O [2-acetyloxyethyl acetate]
53.00 | ClCC=CCCl [1,4-dichlorobut-2-ene]

flash point [°C] | SMILES
100.00 | C=C(C)C1CCC2=CC(=O)CC(C)C2(C)C1 (stereo unspecified)
171.00 | CCCCC(CC)COC(=O)COc1ccc(Cl)cc1Cl (stereo unspecified) [2-ethylhexyl 2-(2,4-dichlorophenoxy)acetate]
79.00 | Cc1ccccc1Br [1-bromo-2-methylbenzene]
83.00 | CCCCCCCCC=O [nonanal]
74.00 | C=Cc1ccc(C)nc1 [5-ethenyl-2-methylpyridine]
102.00 | CC(=O)OCCO [2-hydroxyethyl acetate]
25.00 | COC(C)COC(C)=O (stereo unspecified) [2-methoxypropyl acetate]
16.00 | C=C(C)OC(C)=O [prop-1-en-2-yl acetate]
74.00 | CC1CC(O)CC(C)(C)C1 (stereo unspecified) [3,3,5-trimethylcyclohexan-1-ol]
63.00 | CCCCC[Si](Cl)(Cl)Cl [trichloro(pentyl)silane]
96.00 | COC(=O)c1ccc(C)cc1 [methyl 4-methylbenzoate]
154.00 | NC=O [formamide]
153.00 | CCCCCCCCCCCCCCCCCC(=O)OC [methyl octadecanoate]
82.00 | CC1(C)C2CCC1(C)C(OC(=O)CSC#N)C2 (stereo unspecified)
48.00 | CCCOCC(C)O (stereo unspecified) [1-propoxypropan-2-ol]
44.00 | CC1CNCC(C)O1 (stereo unspecified) [2,6-dimethylmorpholine]
127.00 | NCCOCCO [2-(2-aminoethoxy)ethanol]
103.00 | O=C1C=CC(=O)O1 [furan-2,5-dione]
-27.00 | C[Si](C)(C)C [tetramethylsilane]
180.00 | CCCCCCCC/C=C\CCCCCCCC(=O)OCCCC [butyl (Z)-octadec-9-enoate]

flash point [°C] | SMILES
86.00 | COC(C)COC(C)COC(C)=O (stereo unspecified) [2-(2-methoxypropoxy)propyl acetate]
99.00 | C=CCc1ccc(OC)c(OC)c1 [1,2-dimethoxy-4-prop-2-enylbenzene]
127.00 | CCCCC(CC)C(=O)O (stereo unspecified) [2-ethylhexanoic acid]
91.00 | CCCCCCOCCO [2-hexoxyethanol]
110.00 | CC(C)=CCC/C(C)=C\CC/C(C)=C/CC/C=C(\C)CC/C=C(\C)CCC=C(C)C
98.00 | CCCCCCCCCCS [decane-1-thiol]
41.00 | Cc1ccc(F)cc1 [1-fluoro-4-methylbenzene]
101.00 | O=C1C=CCO1 [InChI=1S/C4H4O2/c5-4-2-1-3-6-4/h1-2H,3H2]
107.00 | CCCCCCCCCCc1ccccc1 [decylbenzene]
170.00 | N=C(N)N(c1ccccc1)c1ccccc1 [1,1-diphenylguanidine]
75.00 | OCC1CCCO1 (stereo unspecified) [oxolan-2-ylmethanol]
-135.00 | CC [ethane]
97.00 | CCCCC(CC)COCC1CO1 (stereo unspecified) [2-(2-ethylhexoxymethyl)oxirane]
69.00 | O=CO [formic acid]
149.00 | CCCCCCCCCCCCc1ccccc1S(=O)(=O)O [2-dodecylbenzenesulfonic acid]
111.00 | OCCO [ethane-1,2-diol]
61.00 | CC(=O)OC1CC(C)OC(C)O1 (stereo unspecified) [(2,6-dimethyl-1,3-dioxan-4-yl) acetate]
54.00 | O=[N+]([O-])C(Br)=Cc1ccccc1 [(2-bromo-2-nitroethenyl)benzene]
30.00 | CCC(O)CC [pentan-3-ol]
187.00 | CCCOC(=O)c1cc(O)c(O)c(O)c1 [propyl 3,4,5-trihydroxybenzoate]
